In US20110301087A1, “CRF1 RECEPTOR COMPOUNDS” (priority 2008, published 2011):
Where a SMILES comes first, the peptide text is derived from it. [ ]: non-standard residue; d: D form. The star is where a group is joined. Palmitoyl = CCCCCCCCCCCCCCCC(=O)*; Nle = CCCC[C@H](N)C(=O)O

Target: T1, CRF1 (Homo sapiens, UniProt P34998)
T1 construct: endogenously expresses functional CRF1; endogenous in cells; host or cells: Y-79 human retinoblastoma cells
T1 sequence (P34998 24-415): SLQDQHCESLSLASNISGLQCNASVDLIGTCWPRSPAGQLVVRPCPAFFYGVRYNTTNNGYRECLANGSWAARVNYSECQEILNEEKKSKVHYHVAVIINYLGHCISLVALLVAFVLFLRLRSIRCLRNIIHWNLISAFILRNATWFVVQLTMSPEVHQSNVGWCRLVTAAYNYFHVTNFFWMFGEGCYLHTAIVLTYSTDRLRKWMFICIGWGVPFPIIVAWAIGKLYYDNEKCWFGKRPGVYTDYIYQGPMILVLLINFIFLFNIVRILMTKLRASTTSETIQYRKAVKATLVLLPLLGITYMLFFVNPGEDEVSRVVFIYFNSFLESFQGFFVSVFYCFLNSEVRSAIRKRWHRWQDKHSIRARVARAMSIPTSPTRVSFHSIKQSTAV
Experiment: CRF1 assessment of cAMP (HTRF cAMP assay) in Y-79 cells, antagonist mode
Type: cell-based
Conditions: Y79 cells; for IC50: CRF1 cAMP screening, against agonist; for inhibition at 0.3 µM: 300 nM pepducin against agonist dose response, read-out: % Inhibition (± SD)
Description: HTRF (homogeneous time resolved fluorescence) is a technology developed by Cisbio Bioassays based on TR-FRET (time-resolved fluorescence resonance energy transfer). Cisbio Bioassays has developed a wide selection of HTRF-based assays compatible with whole cells, thereby enabling functional assays run under more physiological conditions. cAMP kits are based on a competitive immunoassay using cryptate-labeled anti-cAMP antibody and d2-labeled cAMP. This assay allows the measurement of increase in intracellular cAMP upon Gs-coupled receptor activation as well as decrease in forskolin stimulated increase in cAMP upon Gi-coupled receptor activation. Cells expressing CRF1 endogenously or via transfection can be used to assess compound pharmacology using cAMP assays as a means to measure the activity of adenylyl cyclase resulting from CRF1 activation or inhibition.
An example of the use of the cAMP assay can be assessing CRF activation of CRF1 in Y-79, a human retinoblastoma cell line which endogenously expresses functional CRF1. Y-79 cells were seeded into 96-well half area black plates at 30K/well in Hank's balanced salt solution with 50 mM HEPES, 0.1% BSA, 200 uM IBMX. Compounds to be tested for agonist activity were added to cells, incubated for 30 minutes at 37 degrees C. and assayed for cAMP concentration. To test for antagonist activity, compounds to be tested were added to cells, followed by the addition of agonist at an experimentally determined optimal concentration, generally the EC80. Plates were incubated for 30 minutes at 37 degrees C. and assayed for cAMP. To determine concentration of cAMP in each well, d2-labeled cAMP in Conjugate/Lysis buffer was added to wells. This addition lysed the cells and input a known concentration of labeled cAMP. This was followed by the addition of anti-cAMP antibody conjugated to cryptate. FRET occurs when cryptate-labeled antibody binds to d2-labeled cAMP. Therefore, the specific signal is inversely proportional to the concentration of cAMP in the sample. Conversion of signal to concentration of cAMP in the well was accomplished by comparing the FRET signal of sample to a standard curve generated using known concentrations of cAMP.

Row | SMILES | IC50 [µM] | inhibition at 0.3 µM [%]
1 | CCCCCCCCCCCCCCCC(=O)N[C@H](C(=O)N[C@@H](CC(=O)O)C(=O)N[C@@H](CCCNC(=N)N)C(=O)N[C@@H](CC(C)C)C(=O)N[C@@H](CCCNC(=N)N)C(=O)N[C@@H](CCCCN)C(=O)N[C@@H](Cc1c[nH]c2ccccc12)C(=O)N[C@@H](CCSC)C(=O)N[C@@H](C)C(=O)N[C@H](C(N)=O)[C@@H](C)CC)[C@@H](C)O [Compound 43] (Palmitoyl-TDRLRKWMAI-NH2) | > 10 | 48
2 | CCCCCCCCCCCCCCCC(=O)N[C@@H](C)C(=O)N[C@@H](CC(=O)O)C(=O)N[C@@H](CCCNC(=N)N)C(=O)N[C@@H](CC(C)C)C(=O)N[C@@H](CCCNC(=N)N)C(=O)N[C@@H](CCCCN)C(=O)N[C@@H](Cc1c[nH]c2ccccc12)C(=O)N[C@@H](CCSC)C(=O)N[C@@H](Cc1ccccc1)C(=O)N[C@H](C(N)=O)[C@@H](C)CC [Compound 44] (Palmitoyl-ADRLRKWMFI-NH2) | > 10 | 42
3 | CCCCCCCCCCCCCCCC(=O)N[C@H](C(=O)N[C@@H](C)C(=O)N[C@@H](CCCNC(=N)N)C(=O)N[C@@H](CC(C)C)C(=O)N[C@@H](CCCNC(=N)N)C(=O)N[C@@H](CCCCN)C(=O)N[C@@H](Cc1c[nH]c2ccccc12)C(=O)N[C@@H](CCSC)C(=O)N[C@@H](Cc1ccccc1)C(=O)N[C@H](C(N)=O)[C@@H](C)CC)[C@@H](C)O [Compound 45] (Palmitoyl-TARLRKWMFI-NH2) | > 10 | 70
4 | CCCCCCCCCCCCCCCC(=O)N[C@H](C(=O)N[C@@H](CC(=O)O)C(=O)N[C@@H](C)C(=O)N[C@@H](CC(C)C)C(=O)N[C@@H](CCCNC(=N)N)C(=O)N[C@@H](CCCCN)C(=O)N[C@@H](Cc1c[nH]c2ccccc12)C(=O)N[C@@H](CCSC)C(=O)N[C@@H](Cc1ccccc1)C(=O)N[C@H](C(N)=O)[C@@H](C)CC)[C@@H](C)O [Compound 46] (Palmitoyl-TDALRKWMFI-NH2) | > 10 | 58
5 | CCCCCCCCCCCCCCCC(=O)N[C@H](C(=O)N[C@@H](CC(=O)O)C(=O)N[C@@H](CCCNC(=N)N)C(=O)N[C@@H](C)C(=O)N[C@@H](CCCNC(=N)N)C(=O)N[C@@H](CCCCN)C(=O)N[C@@H](Cc1c[nH]c2ccccc12)C(=O)N[C@@H](CCSC)C(=O)N[C@@H](Cc1ccccc1)C(=O)N[C@H](C(N)=O)[C@@H](C)CC)[C@@H](C)O [Compound 47] (Palmitoyl-TDRARKWMFI-NH2) | 1 to 5 | 62
6 | CCCCCCCCCCCCCCCC(=O)N[C@H](C(=O)N[C@@H](CC(=O)O)C(=O)N[C@@H](CCCNC(=N)N)C(=O)N[C@@H](CC(C)C)C(=O)N[C@@H](CCCNC(=N)N)C(=O)N[C@@H](C)C(=O)N[C@@H](Cc1c[nH]c2ccccc12)C(=O)N[C@@H](CCSC)C(=O)N[C@@H](Cc1ccccc1)C(=O)N[C@H](C(N)=O)[C@@H](C)CC)[C@@H](C)O [Compound 49] (Palmitoyl-TDRLRAWMFI-NH2) | > 10 | 42
7 | CCCCCCCCCCCCCCCC(=O)N[C@H](C(=O)N[C@@H](CC(=O)O)C(=O)N[C@@H](CCCNC(=N)N)C(=O)N[C@@H](CC(C)C)C(=O)N[C@@H](CCCNC(=N)N)C(=O)N[C@@H](CCCCN)C(=O)N[C@@H](C)C(=O)N[C@@H](CCSC)C(=O)N[C@@H](Cc1ccccc1)C(=O)N[C@H](C(N)=O)[C@@H](C)CC)[C@@H](C)O [Compound 50] (Palmitoyl-TDRLRKAMFI-NH2) | > 10 | 58
8 | CCCCCCCCCCCCCCCC(=O)N[C@H](C(=O)N[C@@H](CC(=O)O)C(=O)N[C@@H](CCCNC(=N)N)C(=O)N[C@@H](CC(C)C)C(=O)N[C@@H](CCCNC(=N)N)C(=O)N[C@@H](CCCCN)C(=O)N[C@@H](Cc1c[nH]c2ccccc12)C(=O)N[C@@H](C)C(=O)N[C@@H](Cc1ccccc1)C(=O)N[C@H](C(N)=O)[C@@H](C)CC)[C@@H](C)O [Compound 51] (Palmitoyl-TDRLRKWAFI-NH2) | 0.501 to 1 | 47 ± 7
9 | CCCCCCCCCCCCCCCC(=O)N[C@H](C(=O)N[C@@H](CC(=O)O)C(=O)N[C@@H](CCCNC(=N)N)C(=O)N[C@@H](CC(C)C)C(=O)N[C@@H](CCCNC(=N)N)C(=O)N[C@@H](CCCCN)C(=O)N[C@@H](Cc1c[nH]c2ccccc12)C(=O)N[C@@H](CCSC)C(=O)N[C@@H](Cc1ccccc1)C(=O)N[C@@H](C)C(N)=O)[C@@H](C)O [Compound 52] (Palmitoyl-TDRLRKWMFA-NH2) | > 10 | 70
10 | CCCCCCCCCCCCCCCC(=O)NCC(=O)N[C@@H](CO)C(=O)N[C@H](C(=O)N[C@@H](CC(=O)O)C(=O)N[C@@H](CCCNC(=N)N)C(=O)N[C@@H](CC(C)C)C(=O)N[C@@H](CCCNC(=N)N)C(=O)N[C@@H](CCCCN)C(=O)N[C@@H](C)C(=O)N[C@@H](CCCC)C(=O)N[C@@H](Cc1ccccc1)C(=O)N[C@H](C(N)=O)[C@@H](C)CC)[C@@H](C)O [Compound 53] (Palmitoyl-GSTDRLRKA[Nle]FI-NH2) |  | 50 ± 14
11 | CCCCCCCCCCCCCCCC(=O)N[C@H](C(=O)N[C@@H](CC(=O)O)C(=O)N[C@@H](CCCNC(=N)N)C(=O)N[C@@H](CC(C)C)C(=O)N[C@@H](CCCNC(=N)N)C(=O)N[C@@H](CCCCN)C(=O)N[C@@H](Cc1c[nH]c2ccccc12)C(=O)N[C@@H](CCCC)C(=O)N[C@@H](Cc1ccccc1)C(=O)N[C@H](C(N)=O)[C@@H](C)CC)[C@@H](C)O [Compound 54] (Palmitoyl-TDRLRKW[Nle]FI-NH2) |  | 55 ± 7
12 | CCCCCCCCCCCCCCCC(=O)N[C@@H](CCCNC(=N)N)C(=O)N[C@H](C(=O)N[C@@H](CC(C)C)C(=O)N[C@@H](CCSC)C(=O)N[C@H](C(=O)N[C@@H](CCCCN)C(=O)N[C@@H](CC(C)C)C(=O)N[C@@H](CCCNC(=N)N)C(=O)N[C@@H](C)C(=O)N[C@@H](CO)C(=O)N[C@H](C(=O)N[C@H](C(=O)N[C@@H](CO)C(N)=O)[C@@H](C)O)[C@@H](C)O)[C@@H](C)O)[C@@H](C)CC [Compound 58, Pal-RILMTKLRASTTS-amide] (Palmitoyl-RILMTKLRASTTS-NH2) | 0.501 to 1 | 35
13 | CCCCCCCCCCCCCCCC(=O)N[C@@H](C)C(=O)N[C@@H](CO)C(=O)N[C@H](C(=O)N[C@H](C(=O)N[C@@H](CO)C(=O)N[C@@H](CCC(=O)O)C(=O)N[C@H](C(=O)N[C@H](C(=O)N[C@@H](CCC(N)=O)C(=O)N[C@@H](Cc1ccc(O)cc1)C(=O)N[C@@H](CCCNC(=N)N)C(=O)N[C@@H](CCCCN)C(=O)N[C@@H](C)C(=O)N[C@H](C(=O)N[C@@H](CCCCN)C(=O)N[C@@H](CO)C(N)=O)C(C)C)[C@@H](C)CC)[C@@H](C)O)[C@@H](C)O)[C@@H](C)O [Compound 62] (Palmitoyl-ASTTSETIQYRKAVKS-NH2) | 1 to 5 | 50
14 | CCCCCCCCCCCCCCCC(=O)NCC(=O)N[C@@H](CO)C(=O)N[C@H](C(=O)N[C@@H](CCCNC(=N)N)C(=O)N[C@@H](C)C(=O)N[C@@H](CCCNC(=N)N)C(=O)N[C@H](C(=O)N[C@@H](C)C(=O)N[C@@H](CCCNC(=N)N)C(=O)N[C@@H](C)C(=O)N[C@@H](CCSC)C(N)=O)C(C)C)[C@@H](C)CC [Compound 64] (Palmitoyl-GSIRARVARAM-NH2) | 1 to 5 | 55 ± 13
